{"source": "patent US20060052435A1", "about": "“Selective dopamin d3 receptor agonists for the treatment of sexual dysfunction” (priority 2001, published 2006)", "key": {"[1]": {"test_system": "anaesthetised dog", "test": "emesis in the chloralose anaesthetised dog", "method": "(§1) Male beagles, 11-17 kg were used. Following an overnight fast, animals were anaesthetised with chloralose (80 mg kg^−1 i.v.), having first been injected with an anaesthetic dose of the short acting barbiturate, thiopentone (15 mg kg^−1 i.v.). Following tracheal intubation, which ensured a patent airway even during the expulsion phase of the emetic response, the left femoral vein and artery were cannulated for further administration of anaesthetic and for recording haemodynamic parameters, respectively. […] During the stabilisation period, respiratory rate was monitored to ensure that central respiratory centres were not deeply depressed, since the CNS efferent component of the emetic reflex is essentially conveyed via respiratory motor neurones. […] Animals were observed closely for 30 min post-dose and motor (e.g. swallowing, eye blinking, limb movements, changes in respiratory rate and depth, retching and vomiting) and haemodynamic changes noted and recorded. […] At the end of an experiment animals were sacrificed with an overdose of pentobarbitone.\n(§2) Observations made on individual animals were used to determine the percentage of animals that retched when injected with a particular dose level of test compound. Percentage of animals retching was then used to construct a dose response curve and an ED50 value determined from the appropriate curve."}, "[2]": {"test": "emesis in the chloralose anaesthetised dog", "conditions": "male, beagle, dog, in vivo, 3000 μg kg^−1", "method": "as §1, §2"}, "[3]": {"molecular_target": "human dopamine D2 long receptor (Homo sapiens, UniProt P14416)", "sequence (P14416 whole entry)": "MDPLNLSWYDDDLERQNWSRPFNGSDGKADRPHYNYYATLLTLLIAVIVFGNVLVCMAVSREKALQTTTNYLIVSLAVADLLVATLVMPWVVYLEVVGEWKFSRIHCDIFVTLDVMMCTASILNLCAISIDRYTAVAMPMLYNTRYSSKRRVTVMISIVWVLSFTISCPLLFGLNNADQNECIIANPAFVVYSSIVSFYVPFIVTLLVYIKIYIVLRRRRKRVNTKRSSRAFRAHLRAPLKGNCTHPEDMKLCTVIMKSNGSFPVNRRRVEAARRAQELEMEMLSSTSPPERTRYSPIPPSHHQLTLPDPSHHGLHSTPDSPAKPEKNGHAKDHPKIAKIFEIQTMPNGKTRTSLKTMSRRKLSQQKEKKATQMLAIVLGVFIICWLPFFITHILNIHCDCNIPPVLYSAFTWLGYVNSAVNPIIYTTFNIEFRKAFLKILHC"}, "[4]": {"test_system": "anaesthetised dog", "test": "haemodynamics in the anaesthetised dog", "format": "in vivo", "conditions": "for effect on mean blood pressure / effect on total vascular resistance (TVR; TPR) / effect on cardiac output and heart rate: s.c., hydrochloride; for effect on mean blood pressure / effect on total vascular resistance (TVR; TPR): doses up to 3000 μg/kg", "excerpt": "Male beagles were anaesthetised with a mixture of chloralose and urethane, following pre-medication with piritramide. They were instrumented to measure arterial blood pressure, cardiac output, E.C.G., pudendal artery blood flow (PAF) and intra-cavernosal pressure (ICP). Other parameters such as heart rate and vascular resistance were derived from the primary signals. Following a period of equilibration, a series of control readings were taken and the effects of pelvic nerve stimulation at 4 and 8 Hz, on ICP and PAF were measured. Compounds were administered subcutaneously in the dorsal neck region via an implanted catheter, in the dose range of 0.3-3000 μg(base)/kg. Following each dose, parameters were measured at fixed intervals for 30 min.\nResults were analysed as percent change from the final control values for each dog and mean values for three dogs were used."}, "[5]": {"conditions": "at 3000 μg/kg, haemodynamic study"}}, "data": [{"smiles": "CCCN1CCO[C@H](c2cccc(O)c2)C1.Cl", "note": "[Example 8, R-(−)-3-(4-Propylmorpholin-2-yl)phenol hydrochloride]", "values": [{"measurement": "free plasma concentration relative to the D3 EC50", "setting": "[1]; at 3000 μg/kg, emesis study", "value": "approximately 270 fold"}, {"measurement": "dose at which emesis was observed", "setting": "[1]; s.c., escalating doses 3-3000 μg kg^−1", "value": "> 3000", "unit": "µg/kg"}, {"measurement": "concentration at 15 min", "setting": "[2]", "value": "~1000", "unit": "nM"}, {"measurement": "EC50", "setting": "[3]", "value": 4.97, "unit": "µM"}, {"measurement": "free plasma concentration of the corresponding samples", "setting": "[4]; [5]", "value": 2700, "unit": "nM"}, {"measurement": "free plasma concentration relative to the D3 EC50", "setting": "[4]; [5]", "value": "approximately 270 fold"}, {"measurement": "Geometric mean ED30 (fall in TPR)", "setting": "[4]; dog, in vivo", "value": "No effect"}, {"measurement": "effect on mean blood pressure", "setting": "[4]", "value": "No significant effect"}, {"measurement": "effect on total vascular resistance (TVR; TPR)", "setting": "[4]", "value": "No significant effect"}, {"measurement": "effect on mean blood pressure", "setting": "[4]; listed as selective D3 agonist", "value": "no significant effects"}, {"measurement": "effect on total vascular resistance (TVR; TPR)", "setting": "[4]; listed as selective D3 agonist", "value": "no significant effects"}, {"measurement": "effect on cardiac output and heart rate", "setting": "[4]", "value": "no significant effect"}, {"measurement": "effect on cardiac output and heart rate", "setting": "[4]; listed as selective D3 agonist", "value": "no significant effects"}]}]}
